Results published in patent publication US6420427B1, “Aminobutyric acid derivatives” (Ono Pharmaceutical Co., Ltd., priority 1997, dated 2002).

How the values were obtained:
Type in all cases: biochemical
gelatinase A = target: T1, gelatinase A (Homo sapiens, UniProt P08253); assay: Inhibitory activity against gelatinase A; settings: progelatinase A from human normal skin dermal fibroblasts (HNDF), APMA-activated; fluorogenic substrate MOCAc-Pro-Leu-Gly-A2pr(Dnp)-Ala-Arg-NH2 13.5 μM, 37° C.
T1 construct: endogenous in cells; host or cells: human normal skin dermal fibroblasts (HNDF)
T1 sequence (P08253 110-660): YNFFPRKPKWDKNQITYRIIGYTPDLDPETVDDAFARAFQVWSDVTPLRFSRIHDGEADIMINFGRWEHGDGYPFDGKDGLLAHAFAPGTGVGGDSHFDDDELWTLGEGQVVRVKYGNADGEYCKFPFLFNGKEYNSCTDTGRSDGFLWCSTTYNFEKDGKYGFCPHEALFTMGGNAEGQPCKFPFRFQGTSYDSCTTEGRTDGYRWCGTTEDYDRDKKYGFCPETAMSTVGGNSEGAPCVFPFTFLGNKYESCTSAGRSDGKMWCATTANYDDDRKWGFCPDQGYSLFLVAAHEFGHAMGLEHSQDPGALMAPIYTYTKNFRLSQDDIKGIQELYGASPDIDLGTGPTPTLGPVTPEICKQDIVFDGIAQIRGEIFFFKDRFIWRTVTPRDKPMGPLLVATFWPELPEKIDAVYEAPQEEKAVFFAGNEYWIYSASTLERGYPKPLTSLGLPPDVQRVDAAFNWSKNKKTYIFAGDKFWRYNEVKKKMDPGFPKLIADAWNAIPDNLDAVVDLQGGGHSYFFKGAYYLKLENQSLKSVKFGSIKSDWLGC
Procedure: (1) Inhibitory Activity Against Gelatinase A
The progelatinase A (5 μl; in assay buffer (40 μl)) was purified from human normal skin dermal fibroblasts (HNDF). It was activated by the addition of 10 mM of p-aminophenylmercuric acetate (APMA) ([…]) for 1 hour at 37° C.
A mixture of the synthetic substrate (MOCAc-Pro-Leu-Gly-A2pr(Dnp)-Ala-Arg-NH2) (130 μl; a final concentration 13.5 μM) and a solution (20 μl) with or without various concentrations of the test compound was preincubated for 5 minutes at 37° C.
The solution of activated gelatinase A (50 μl/well) was mixed with the mixture and the mixture was incubated for 15 minutes at 37° C. The enzyme reaction was started. The enzyme activity was represented by increasing value of fluorescent intensity [Ex=325 nm (Ex)/393 nm (Em)] per 1 minute. Inhibitory activity was represented by inhibitory percentage (%) per enzyme activity without the test compound. For example, IC50 of the compound as Example 71 is 0.50 nM.

collagenase = target: T2, collagenase (Homo sapiens, UniProt P03956); assay: Inhibitory activity against collagenase; settings: procollagenase from HNDF, trypsin-activated; thioester substrate 1.33 mM, 26° C., absorption at 324 nm
T2 construct: endogenous in cells; host or cells: human normal skin dermal fibroblasts (HNDF)
T2 sequence (P03956 100-469): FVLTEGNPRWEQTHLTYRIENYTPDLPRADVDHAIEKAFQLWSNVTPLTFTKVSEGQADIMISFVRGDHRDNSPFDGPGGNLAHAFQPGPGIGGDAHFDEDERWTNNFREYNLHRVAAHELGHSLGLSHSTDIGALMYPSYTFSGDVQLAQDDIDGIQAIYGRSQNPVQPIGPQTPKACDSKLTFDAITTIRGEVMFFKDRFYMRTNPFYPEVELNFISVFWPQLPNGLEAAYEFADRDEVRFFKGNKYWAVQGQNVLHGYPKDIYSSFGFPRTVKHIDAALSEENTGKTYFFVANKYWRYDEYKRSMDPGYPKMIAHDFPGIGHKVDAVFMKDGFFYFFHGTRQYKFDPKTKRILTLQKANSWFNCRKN
Procedure: (2) Inhibitory Activity Against Collagenase
The procollagenase (5 μl; in assay buffer (105 μl)) was purified from human normal skin dermal fibroblasts (HNDF). It was activated by the addition of 1 mg/ml Trypsin (45 μl) for 1 minute at 37° C. Trypsin was inactivated by addition of 5 mg/ml soybean trypsin inhibitor (SBTI; 50 μl).
A mixture of the synthetic substrate (Ac-Pro-Leu-Gly-[2-mercapto-4-methyl-pentanoyl]-Leu-Gly-OEt) (105 μl; a final concentration 1.33 mM) and a solution (20 μl) with or without various concentrations of the test compound was preincubated for 5 minutes at 26° C.
The solution of activated enzyme (75 μl/tube, 50 μl) was mixed with the mixture and the mixture was incubated for 10 minutes at 26° C.
Absorption at 324 nm was measured at 40 points over 10 minutes. Vmax value was determined as measured value in 30 points therein.

human stromelysin = target: T3, human stromelysin (Homo sapiens, UniProt P08254); assay: Inhibitory activity against stromelysin; settings: APMA-activated, substrate NFF-3, pH 7.5, 37° C.
T3 construct: purchased Yagai
Procedure: (3) Inhibitory Activity Against Stromelysin ps [Method]
The mixture of human stromelysin (Yagai; 9 volume) and 10 mM p-aminophenylmercury acetate (1 volume) was activated for 20 hours at 37° C. A solution of the test compound in dimethylsulfoxide (10 μl) and 0.5 mM solution (10 μl) of 10 mM solution of the synthetic substrate NFF-3 (Mca-Arg-Pro-Lys-Pro-Val-Glu-Nva-Trp-Arg-Lys(DNP)-NH2., Nva: norvaline, Peptide Laboratory) in dimethylsulfoxide diluted by water were added to assay buffer (50 mM tris-HCl, 10 mM CaCl2, 0.05% Brij35, 0.02% NaN3 (pH 7.5)) (150 μl). Furthermore, assay buffer (30 μl) was added to the mixture. The mixture was incubated for 10 minutes at 37° C. The reaction was started by addition of a solution of the above activated stromelysin solution (50 μl). The enzyme activity was represented by increasing value of fluorescent intensity [Ex=325 nm (Ex)/393 nm (Em)] per 1 minute. Inhibitory activity was represented by inhibitory percentage (%) per enzyme activity without the test compound.

T3 sequence (P08254 100-477): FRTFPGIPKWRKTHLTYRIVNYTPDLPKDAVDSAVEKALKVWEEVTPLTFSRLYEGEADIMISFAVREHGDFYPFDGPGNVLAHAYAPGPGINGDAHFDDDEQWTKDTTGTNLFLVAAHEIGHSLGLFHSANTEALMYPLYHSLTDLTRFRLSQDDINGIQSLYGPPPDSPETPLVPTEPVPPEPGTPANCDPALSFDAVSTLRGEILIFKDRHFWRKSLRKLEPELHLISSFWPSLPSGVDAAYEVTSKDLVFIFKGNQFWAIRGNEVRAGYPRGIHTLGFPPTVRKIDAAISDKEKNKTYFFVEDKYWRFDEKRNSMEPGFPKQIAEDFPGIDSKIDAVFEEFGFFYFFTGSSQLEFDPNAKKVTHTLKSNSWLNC

`CCOCOC[C@H](C[C@H](C)C(=O)NO)NC(=O)c1ccc(Oc2ccccc2)cc1` [Example 71, N-Hydroxy-2(S)-methyl-5-ethoxymethoxy-4(S)-[N-(4-phenoxyphenylcarbonyl)-amino]pentanamide] showed an IC50 (gelatinase A) of 0.5 nM, an IC50 (collagenase) of 2500 nM and an IC50 (human stromelysin) of 26 nM.
